Assay: Total Antioxidant Capacity (TAC) assay, Cell Biolabs kit, copper ion reduction, absorbance at 490 nm
Type: biochemical
Details: for Total Antioxidant Capacity (TAC): absorbance 490 nm, triplicate; for TAC of the individual antioxidant agent: Table 1 / FIG. 1, single agent alone
Method: Total antioxidant capacity (TAC) was determined using a kit (Cell Biolabs, Inc) as follows; the test samples were diluted in water and a buffer to reach a final antioxidant agent to buffer ratio ranging from 1:1 to 1:1,000,000. 20 ul of test sample or control (ascorbic acid or green tea) were added to the wells of 96 well plate, followed by 180 μL of 1× Reaction Buffer (provided with the kit). The absorbance of the reaction mix in each well was measured at 490 nm to get an initial reading. 50 μL of the 1× Copper Ion Reagent (provided with the kit) were added to each well to initiate the reaction. The reaction was allowed to carry on for 5 minutes on an orbital shaker and 50 μL of 1× Stop Solution (provided with the kit) added to each well to terminate the reaction. The colour change was assessed using a plate reader at 490 nm.
The stronger the colour change at the end of the reaction, the higher the spectrophotometric value, and the higher the antioxidant capacity of the antioxidant agents.
21 antioxidant compounds were tested in triplicate at antioxidant: buffer ratios ranging from 1:1 to 1:1,000,000. […]

[1] = Antioxidant:Buffer 1:1 (concentration 1)
[2] = Antioxidant:Buffer 1:10 (concentration 0.1)
[3] = Antioxidant:Buffer 1:100 (concentration 0.01)

Row | Structure (SMILES) | Total Antioxidant Capacity (TAC) [1] | Total Antioxidant Capacity (TAC) [2] | Total Antioxidant Capacity (TAC) [3] | TAC of the individual antioxidant agent
1 | COc1cc2c(cc1O)CCC(C)(C)O2 [Dimethylmethylmethoxy chromanol, Dimethylmethoxy chromanol] | 1.839 | 1.807 | 1.824 | 1.671
2 | COc1cc(/C=C/C(=O)O)ccc1O [Ferulic acid] | 1.911 | 1.808 | 1.991 | 1.583
3 | O=C1O[C@H]([C@@H](O)CO)C(O)=C1O [Ascorbic Acid (Control), Ascorbic Acid, reference compound] | 2.6 | 1.6 | 0.7 | 

— patent US20250161196A1, “Antioxidant Compositions” (THE BOOTS COMPANY PLC, priority 2022, published 2025)
